# Experiments:
# [1] = system: Alpha 1 Adrenergic Receptors; test: Rabbit Aorta: Alpha 1 Adrenergic Receptors; assay type: cell-based, albino rabbit; details: rabbit aorta rings, 37° C., field stimulated; n = number of test runs
# Procedure: (§1) The tetrahydroquinoxalines produced in Examples 1 to 3 were tested for activity using the following in vitro methods.
# Rabbit Aorta: Alpha 1 Adrenergic Receptors
# (§2) Thoracic aorta and saphenous vein specimens were obtained from albino rabbits that were killed by CO2 inhalation. The aorta and saphenous vein were each cut into 3 mm rings. Tissues were placed in Krebs-Hensleit solution of the following composition (millimolar): NaCl 119; KCl 4.7; MgSO4 1.5, KH2 PO4 1.2; CaCl2 2.5; NaHCO3 25 and glucose 11.0. The solution also contained cocaine (0.1 millimolar) to block neuronal uptake and EDTA (30 micromolar) and ascorbic acid (5 micromolar) to prevent oxidation of the tetrahydroquinoxaline being tested. Tissues were hung in 10 ml organ baths and tension was measured via Grass FT03 force-displacement transducers. Resting tension was 1 g and 2 g for the saphenous vein and aorta, respectively. The solution was gassed with 95% O2 and 5% CO2 and maintained at 37° C. Tissues were allowed to equilibrate for 2 hours before stimulation and the cumulative addition of the tetrahydroquinoxaline being treated was started. Tissue stimulation was performed as with the rabbit vas deferens, described above. The contractions of the tissue were recorded isometrically as for the rabbit vas deferens assay. Cumulative concentration response curves were obtained and the EC50 valve developed for each tetrahydroquinoxaline tested in a manner similar to that for the rabbit vas deferens assay.
# [2] = target: T1, Alpha 2 Adrenergic Receptors (Oryctolagus cuniculus, UniProt Q5ZQK3); test: Rabbit Vas Deferens: Alpha 2 Adrenergic Receptors; assay type: cell-based, New Zealand white rabbit; details: 35° C., field stimulated, 50% reduction in response height, n = number of test runs
# T1 construct: from tissue; host or cells: New Zealand white rabbit vas deferens, prostatic end, field stimulated
# T1 sequence (Q5ZQK3 1-451): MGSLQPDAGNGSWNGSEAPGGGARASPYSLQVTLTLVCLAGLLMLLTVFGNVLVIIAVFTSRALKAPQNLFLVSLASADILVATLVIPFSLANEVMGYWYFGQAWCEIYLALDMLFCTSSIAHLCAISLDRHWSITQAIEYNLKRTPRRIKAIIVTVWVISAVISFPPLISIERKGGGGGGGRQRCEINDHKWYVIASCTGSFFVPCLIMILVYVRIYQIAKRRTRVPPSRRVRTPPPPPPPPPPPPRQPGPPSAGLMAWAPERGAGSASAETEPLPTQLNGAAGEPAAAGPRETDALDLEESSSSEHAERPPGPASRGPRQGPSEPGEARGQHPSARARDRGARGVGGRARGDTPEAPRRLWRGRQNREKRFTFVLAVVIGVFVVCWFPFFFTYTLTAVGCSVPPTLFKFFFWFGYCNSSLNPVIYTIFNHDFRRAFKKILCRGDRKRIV
# Procedure: as §1
# Rabbit Vas Deferens: Alpha 2 Adrenergic Receptors
# New Zealand white rabbits (2-3 kg) were killed by CO2 inhalation and the vasa deferentia removed. The prostatic ends of the vasa deferentia (2-3 cm lengths) were mounted between platinum ring electrodes in 9 ml organ baths and bathed in Krebs bicarbonate solution of the following composition (millimolar): NaCl 118.0; KCl 4.7; CaCl2 2.5; MgSO4 1.2; KH2 PO4 1.2; glucose 11.0; NaHCO3 25.0; which solution was maintained at 35° C. and bubbled with 95% O2 and 5% CO2. The initial tension of the vas deferens was 0.5 g. The tissues were left to equilibrate for 30 minutes before stimulation was started. Vasa were then field stimulated (0.1 Hz, 2 ms pulse width at 90 mA) using a square wave stimulator (WPI A310 Accupulser with A385 stimulus). […] Cumulative concentration-response curves were obtained for the tetrahydroquinoxaline being tested with a 4 minute contact time at each concentration. The reduction in response height was measured and expressed as a percentage of the height of the response before the addition of tetrahydroquinxoaline. Concentration response curves for each of tetrahydroquinoxalines were plotted. The effective concentration required for a 50% reduction in response height, expressed as EC50, were obtained from these curves and are set forth below.
# [3] = system: intraocular pressure; test: effect on intraocular pressure, topical unilateral administration to rabbit eye; assay type: in vivo, New Zealand white rabbit; details: 0.1% (W/V); for Difference In Intraocular Pressure, Initial Effect On Treated Eye / Difference In Intraocular Pressure, Maximum Effect on Treated Eye / Difference In Intraocular Pressure, Maximum Effect On Untreated Eye: single 50 micro liter drop, N.S. = not statistically significant; for Difference In Intraocular Pressure, Maximum Effect On Untreated Eye: untreated (contralateral) eye
# Procedure: The three (3) tetrahydroquinoxaline derivatives produced in accordance with Examples 1 to 3 were tested to determine what effect, if any, these materials have on intraocular pressure.
# Each of these materials was dissolved in distilled water at a concentration of 0.1% (W/V). Each of these solutions was administered topically and unilaterally to one eye of a drug-naive, unanesthetized New Zealand white rabbit in a single 50 micro liter drop. The contralateral eye received an equal volume of saline prior to determining the intraocular pressure after the mixture was administered. Also, approximately 10 micro liters of 0.5% (W/V) proparacaine (topical anesthetic) was applied to the corneas of each of the rabbits before determining intraocular pressure. As a control test, six (6) other drug-naive, unanesthetized New Zealand white rabbits were treated and tested as described above except that no tetrahydroquinoxaline derivative was included in the solutions administered to the eyes.
# The intraocular pressure was determined in both eyes of each rabbit before and after the solutions were administered. Such intraocular pressure determinations were made in the conventional manner using conventional equipment.
# [4] = system: Alpha 3 Adrenergic Receptors; test: Rabbit Saphenous Vein: Alpha 3 Adrenergic Receptors; assay type: cell-based, albino rabbit; details: rabbit saphenous vein rings, 37° C., field stimulated; n = number of test runs
# Procedure: as §1
# Rabbit Saphenous Vein: Alpha 3 Adrenergic Receptors
# as §2, with “Cumulative concentration response curves were obtained and the EC50 valve developed for each tetrahydroquinoxaline tested in a manner similar to that for the rabbit vas deferens assay.” left out
# [5] = system: dmPGE2-induced diarrhea; test: anti-diarrheal effects in cecectomized rats, dmPGE2-induced diarrhea; assay type: in vivo; details: p.o.
# Procedure: (§3) The tetrahydroquinoxaline produced in Example 1 was tested for anti-diarrheal effects and blood pressure effects using the following method.
# (§4) Cecectomies were performed in unfasted rats as follows. Under anesthesia with methohexital (60 mg/kg. i.p.), a laparotyphlectomy was initiated with a 2 cm midventral incision. The cecum was lifted from the abdominal cavity and exteriorized onto a gauze drape. The cecal apex was freed by severing the avascular area of the mesocecum. Next, a ligature of #1 silk suture was positioned so as to occulude the cecum and its vasculature without compromising ileo-colonic patency. After the ligature was secured and ileo-colonic patency confirmed, the cecum was resected, and the remaining exposed cecal mucosa was washed with saline and cauterized. The intestinal segment was then returned to the abdominal cavity, and the abdominal muscle facia closed with interrupted 4/0 chromic-gut sutures. The dermal incision was closed with 9 mm stainless steel wound clips that were removed approximately 1 week post surgery. An arterial line was also implanted into the abdominal aorta and vena cava via the femoral vessels, in a manner similar to that described in Example 10. Immediately following the surgical procedure, animals were returned to their cages and allowed free access to food and water. Animals were permitted at least 48 hour recovery period before being used in experiments.
# (§5) The cecectomized rats were put into individual wire-bottomed cages placed over sheets of clean paper, and deprived of food and water for the duration of the assay. The MAP was monitored, as described in Example 10, throughout the assay. Rats were given a 2 hour acclimatization period prior to the start of the assay in order to eliminate sporadic episodes of anxiety-induced defecation. During this period they were observed also for consistent occurrences of pelleted feces; an animal producing other than a pelleted stool was disqualified from the study.
# (§6) Diarrhea was induced with oral administration of 16,16-dimethyl prostaglandin E2 (dmPGE2) in 3.5% EtOH. The tetrahydro-quinoxaline was administered by gavage after the onset of diarrheal episodes. The cage papers were removed and examined at 30 minute intervals for dmPGE2 -induced diarrhea. Fecal output was recorded at each interval and fecal consistency is assigned a numerical score in each experimental group as follows: 1=normal pelleted stool; 2=soft-formed stools; 3=water stool and/or diarrhea. The fecal output index (FOI) is defined as the summation of the number of defecation episodes and their ranked consistency score within an observation period.
# [6] = system: mean arterial blood pressure; test: blood pressure effects (MAP) in renal test, intraduodenal administration; assay type: in vivo, Sprague-Dawley rats; details: test run 3 times
# Procedure: (§7) The tetrahydroquinoxaline produced in Example 1 was tested for renal and blood pressure effects using the following method.
# (§8) Young male (20-24 weeks old) Sprague-Dawley rats were used. Under ketamine (60 mg/kg b.wt. i.m.) and pentobarbital (i.p. to effect) anesthesia, medical grade plastic tubes were implanted into the abdominal aorta and vena cava via the femoral vessels. In addition, a Silastic-covered stainless steel cannula were sewn in the urinary bladder. After the surgery, the rats were housed individually and were allowed free access to food and water until the day of the experiment.
# (§9) For about 7 to 10 days before surgery and during recovery, the rats were accustomed to a restraining cage by placement in the cage for 2 to 3 hours every 2nd and 3rd day. The cage was designed for renal clearance studies (a model G Restrainer sold by Braintree Scientific, Inc., Braintree, Mass.). The animals' adjustment to the cage was judged by the stability of blood pressure and heart rate.
# For an experiment, a rat was placed in the restraining cage, and the arterial line was connected to a Statham pressure transducer and a Beckman Dynograph R61 to monitor the mean arterial blood pressure, hereinafter referred to as MAP. […] The volume of urine was measured gravimetrically. Body weight was recorded before and after the experiment. […]
# [7] = system: mean arterial blood pressure; test: blood pressure effects (MAP) in anti-diarrheal test; assay type: in vivo, rats; details: p.o.
# Procedure: as §3, §4, §5, §6
# [8] = system: urine flow; test: renal effects (urine flow), intraduodenal administration; assay type: in vivo, Sprague-Dawley rats; details: test run 3 times
# Procedure: as §7, §8, §9
# For an experiment, a rat was placed in the restraining cage, and the arterial line was connected to a Statham pressure transducer and a Beckman Dynograph R61 to monitor the mean arterial blood pressure, hereinafter referred to as MAP. The venous line was connected to an infusion pump system for infusion of replacement fluid. The tetrahydroquinoxaline was administered intraduodenally by cannula. The bladder cannula was extended with a silastic tube to facilitate collection of urine in preweighed tubes. The volume of urine was measured gravimetrically. Body weight was recorded before and after the experiment.
# Throughout the experiments, 0.9% NaCl containing 10% polyfructosan (Inutest) and 1% sodium PAH was infused at a rate of 20 microliters/min. An equilibration period of 60 minutes was followed by two consecutive 30 minute control clearance periods. Then, the tetrahydroquinoxaline was administered for 90 minutes. Urine collection was resumed 10 minutes after the start of tetrahydroquinoxaline administration. By this time the washout of the bladder cannula dead space (approximately 200 microliters) was completed. Three additional clearance measurements were made. Blood samples (150 microliters) were collected at the midpoint of urine collections. Plasma was separated and saved for analyses, and the cells were resuspended in saline and returned to the animals. Water and sodium loss was carefully replaced i.v. by a variable speed infusion pump.
structure (smiles),measurement,setting,value
"CC1CNc2ccc(NC3=NCCN3)c(Br)c2N1 (racemic) [Example 3, (±) 3-Methyl-5-bromo-6-(2-imidazolin-2-ylamino)-1,2,3,4-tetrahydroquinoxaline]",EC50,[1],1060 ± 271 nM
same,EC50,[2],21.3 ± 3 nM
same,"Difference In Intraocular Pressure, Initial Effect On Treated Eye",[3]; initial effect,N.S.
same,"Difference In Intraocular Pressure, Maximum Effect on Treated Eye",[3],-12.5 ± 2.2%
same,"Difference In Intraocular Pressure, Maximum Effect On Untreated Eye",[3],N.S.
same,effect on intraocular pressure in the treated eye (in words),[3]; treated rabbit eye,effective to reduce intraocular pressure in the treated rabbit eye
Brc1c(NC2=NCCN2)ccc2c1NCCN2 [drawing 5],"Difference In Intraocular Pressure, Initial Effect On Treated Eye",[3]; initial effect,+10.7 ± 3.6%
same,"Difference In Intraocular Pressure, Maximum Effect on Treated Eye",[3],-16.0 ± 3.3%
same,"Difference In Intraocular Pressure, Maximum Effect On Untreated Eye",[3],N.S.
"CC1CNc2c(ccc(NC3=NCCN3)c2Br)N1 (racemic) [Example 2, (±)2-Methyl-5-bromo-6-(2-imidazolin-2-ylamino)-1,2,3,4-tetrahydroquinoxaline]",EC50,[1],6750 ± 116 nM
same,EC50,[2],35.3 ± 3.9 nM
same,EC50,[4],581 ± 29 nM
same,"Difference In Intraocular Pressure, Initial Effect On Treated Eye",[3]; initial effect,N.S.
same,"Difference In Intraocular Pressure, Maximum Effect on Treated Eye",[3],-15.1 ± 3.3%
same,"Difference In Intraocular Pressure, Maximum Effect On Untreated Eye",[3],-8.6 ± 2.4%
same,effect on intraocular pressure in the treated eye (in words),[3]; treated rabbit eye,effective to reduce intraocular pressure in the treated rabbit eye
same,effect on intraocular pressure in the untreated eye (in words),[3]; untreated rabbit eye,reducing the intraocular pressure in the untreated rabbit eye
"Brc1c(NC2=NCCN2)ccc2c1NCCN2 [Example 1, 5-Bromo-6-(2-imidazolin-2-ylamino)-1,2,3,4-tetrahydroquinoxaline]",Percent Reduction in FOI versus dmPGE2 Control,[5]; 0.01 mg/kg,17%
same,Percent Reduction in FOI versus dmPGE2 Control,[5]; 0.03 mg/kg,60%
same,Percent Reduction in FOI versus dmPGE2 Control,[5]; 0.10 mg/kg,57%
same,Percent Reduction in FOI versus dmPGE2 Control,[5]; 0.30 mg/kg,76%
same,Percent Reduction in FOI versus dmPGE2 Control,[5]; 1.00 mg/kg,98%
same,Percent Reduction in FOI versus dmPGE2 Control,[5]; 3.00 mg/kg,98%
same,Percent Reduction in FOI versus dmPGE2 Control,[5]; 10.00 mg/kg,100%
same,anti-diarrheal effects (in words),"[5]; cecectomized rats, dmPGE2-induced diarrhea",substantial anti-diarrheal effects
same,EC50,[1],1130 ± 207 nM
same,Increase in MAP,[6]; 0.3 mg/kg,2.5 mm Hg
same,Increase in MAP,[6]; 1 mg/kg,8 mm Hg
same,EC50,[2],1.75 nM
same,EC50,[4],92 ± 19 nM
same,effect on intraocular pressure in the treated eye (in words),[3]; treated rabbit eye,effective to reduce intraocular pressure in the treated rabbit eye
same,initial effect on intraocular pressure in the treated eye (in words),"[3]; treated rabbit eye, initial effect",raising the intraocular pressure
same,Increase in MAP,[7]; 0.01 mg/kg,0 mm Hg
same,Increase in MAP,[7]; 0.03 mg/kg,0 mm Hg
same,Increase in MAP,[7]; 0.10 mg/kg,0 mm Hg
same,Increase in MAP,[7]; 0.30 mg/kg,0 mm Hg
same,Increase in MAP,[7]; 1.00 mg/kg,0 mm Hg
same,Increase in MAP,[7]; 3.00 mg/kg,10 mm Hg
same,Increase in MAP,[7]; 10.00 mg/kg,25 mm Hg
same,effect in blood pressure accompanying anti-diarrheal effects (in words),[7]; cecectomized rats,no or a relatively minimal effect in blood pressure
same,Increase in Urine Flow,[8]; 0.01 mg/kg,0 microliters/min./100 g of body
same,Increase in Urine Flow,[8]; 0.03 mg/kg,4 microliters/min./100 g of body
same,Increase in Urine Flow,"[8]; 0.1 mg/kg, P less than 0.05",16 microliters/min./100 g of body
same,Increase in Urine Flow,"[8]; 0.3 mg/kg, P less than 0.05",24 microliters/min./100 g of body
same,Increase in Urine Flow,"[8]; 1 mg/kg, P less than 0.05",32 microliters/min./100 g of body
